Source: US9765075B2, “Substituted bridged urea analogs as sirtuin modulators” (GLAXOSMITHKLINE LLC, priority 2013, dated 2017)
Like-named read-outs stand apart in the source and are kept apart here.

Target: T1, SIRT1 (Homo sapiens, UniProt Q96EB6)
T1 sequence (Q96EB6 1-747): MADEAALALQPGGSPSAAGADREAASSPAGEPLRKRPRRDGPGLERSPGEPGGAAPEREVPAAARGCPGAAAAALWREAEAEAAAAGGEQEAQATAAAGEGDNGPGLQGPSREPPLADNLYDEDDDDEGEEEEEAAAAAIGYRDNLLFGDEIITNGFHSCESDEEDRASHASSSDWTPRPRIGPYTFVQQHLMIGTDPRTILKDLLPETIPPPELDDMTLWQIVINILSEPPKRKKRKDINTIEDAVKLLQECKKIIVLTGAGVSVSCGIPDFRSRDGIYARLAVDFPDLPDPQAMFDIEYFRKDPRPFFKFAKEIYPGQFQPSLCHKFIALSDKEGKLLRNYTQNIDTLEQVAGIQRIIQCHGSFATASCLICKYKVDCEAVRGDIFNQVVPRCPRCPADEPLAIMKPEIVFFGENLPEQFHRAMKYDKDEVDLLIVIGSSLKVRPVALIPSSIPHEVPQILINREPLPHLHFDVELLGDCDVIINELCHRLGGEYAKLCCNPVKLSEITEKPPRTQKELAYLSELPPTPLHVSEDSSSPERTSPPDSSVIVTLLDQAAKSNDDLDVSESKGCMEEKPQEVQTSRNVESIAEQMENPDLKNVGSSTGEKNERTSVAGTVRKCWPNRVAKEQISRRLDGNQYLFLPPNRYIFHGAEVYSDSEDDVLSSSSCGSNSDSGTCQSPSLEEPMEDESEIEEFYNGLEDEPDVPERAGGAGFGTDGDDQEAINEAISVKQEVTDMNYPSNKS
Test: Trp mass spectrometry assay (SIRT1 activation)
Format: biochemical
Conditions: for Emax: percent maximum fold activation of SIRT1, read-out: Tryp % Fold Act
In short: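 N-His-tagged SIRT1 (10 nM), expressed in E. coli, was incubated with 0.5 μM Ac-RHKK(Ac)W-NH2 peptide and 120 μM NAD+ for 25 min at 25 °C in HEPES pH 7.5 with […]. The reaction was stopped with formic acid and O-acetyl-ADP-ribose or deacetylated peptide was quantified by mass spectrometry. Results are given as EC1.5 and percent maximal activation relative to DMSO control.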

[1] = Trp mass spectrometry assay, EC1.5 = concentration of test compound that results in 150% activation of SIRT1
[2] = concentration of test compound that results in 150% activation of SIRT1, Trp peptide substrate

Tryp AVG EC1.5 (μM) [1] | Emax (Trp mass spectrometry assay) | Tryp AVG EC1.5 (μM) [2] | Emax (Trp peptide substrate) | SMILES
A (EC1.5<1 μM) | ≥ 150% | – | – | N#Cc1cccc(-c2ccc3c(n2)N(C(=O)Nc2ccncn2)[C@H]2CCN3C2)c1 [Example 181]
A (EC1.5<1 μM) | ≥ 150% | – | – | N#Cc1cccc(-c2ccc3c(n2)N(C(=O)Nc2cncc(F)c2)[C@H]2CCN3C2)c1 [Example 182]
B (EC1.5 1-25 μM) | ≥ 150% | – | – | COc1nccc(NC(=O)N2c3nc(-c4cccc(C#N)c4)ccc3N3CC[C@H]2C3)n1 [Example 183]
A (EC1.5<1 μM) | ≥ 150% | – | – | Cn1ncc2cc(NC(=O)N3c4nc(-c5cccc(C#N)c5)ccc4N4CC[C@H]3C4)ccc21 [Example 184]
B (EC1.5 1-25 μM) | ≥ 150% | – | – | Cn1ccc(NC(=O)N2c3nc(-c4cccc(C#N)c4)ccc3N3CC[C@H]2C3)n1 [Example 185]
B (EC1.5 1-25 μM) | ≥ 150% | – | – | Cn1cc(NC(=O)N2c3nc(-c4cccc(C#N)c4)ccc3N3CC[C@H]2C3)cn1 [Example 186]
B (EC1.5 1-25 μM) | ≥ 150% | – | – | Cc1nc(NC(=O)N2c3nc(-c4cccc(N5CCCC5)c4)ccc3N3CC[C@H]2C3)sc1C [Example 187]
B (EC1.5 1-25 μM) | ≥ 150% | – | – | COc1nccc(NC(=O)N2c3nc(-c4cccc(N5CCCC5)c4)ccc3N3CC[C@H]2C3)n1 [Example 188]
A (EC1.5<1 μM) | ≥ 150% | – | – | N#Cc1cccc(-c2ccc3c(n2)N(C(=O)Nc2cnccn2)[C@H]2CCN3C2)c1 [Example 189]
B (EC1.5 1-25 μM) | ≥ 150% | – | – | COc1cncc(NC(=O)N2c3nc(-c4cccc(C#N)c4)ccc3N3CC[C@H]2C3)n1 [Example 190]
A (EC1.5<1 μM) | ≥ 150% | – | – | O=C(Nc1cccc(-c2cnco2)c1)N1c2nc(-c3cccc(N4CCCC4)c3)ccc2N2CC[C@H]1C2 [Example 191]
B (EC1.5 1-25 μM) | ≥ 150% | – | – | O=C(Nc1cccnc1)N1c2nc(-c3cccc(N4CCCC4)c3)ccc2N2CC[C@H]1C2 [Example 192]
B (EC1.5 1-25 μM) | ≥ 150% | – | – | O=C(Nc1ccncn1)N1c2nc(-c3cccc(N4CCCC4)c3)ccc2N2CC[C@H]1C2 [Example 193]
A (EC1.5<1 μM) | ≥ 150% | – | – | O=C(Nc1cccnc1)N1c2nc(-c3cccc(C(F)(F)F)c3)ccc2N2CCC[C@@H]1C2 [Example 194]
B (EC1.5 1-25 μM) | ≥ 150% | – | – | O=C(Nc1ccncc1)N1c2nc(-c3cccc(C(F)(F)F)c3)ccc2N2CCC[C@@H]1C2 [Example 195]
B (EC1.5 1-25 μM) | ≥ 150% | – | – | O=C(Nc1cccnn1)N1c2nc(-c3cccc(C(F)(F)F)c3)ccc2N2CCC[C@@H]1C2 [Example 196]
A (EC1.5<1 μM) | ≥ 150% | – | – | COc1cncc(NC(=O)N2c3nc(-c4cccc(OC(F)(F)F)c4)ccc3N3CC[C@H]2C3)n1 [Example 197]
B (EC1.5 1-25 μM) | ≥ 150% | – | – | O=C(Nc1cncc(F)c1)N1c2nc(-c3cccc(N4CCCC4)c3)ccc2N2CC[C@H]1C2 [Example 198]
B (EC1.5 1-25 μM) | ≥ 150% | – | – | Cn1cc(NC(=O)N2c3nc(-c4cccc(N5CCCC5)c4)ccc3N3CC[C@H]2C3)cn1 [Example 199]
C (EC1.5>25 μM) | < 150% | – | – | CN(C(=O)N1c2nc(-c3cccc(C(F)(F)F)c3)ccc2N2CC[C@H]1C2)c1ccccn1 [Example 200]
B (EC1.5 1-25 μM) | ≥ 150% | – | – | Cc1nc(NC(=O)N2c3nc(-c4cccc(C(F)(F)F)c4)ccc3N3CC[C@@H]2C3)sc1C [Example 201]
B (EC1.5 1-25 μM) | ≥ 150% | – | – | O=C(Nc1ccncn1)N1c2nc(-c3cccc(C(F)(F)F)c3)ccc2N2CC[C@@H]1C2 [Example 202]
B (EC1.5 1-25 μM) | ≥ 150% | – | – | O=C(Nc1ccc(F)cn1)N1c2nc(-c3cccc(C(F)(F)F)c3)ccc2N2CC[C@@H]1C2 [Example 203]
B (EC1.5 1-25 μM) | ≥ 150% | – | – | O=C(Nc1ccc(F)cn1)N1c2nc(-c3cccc(Cl)c3)ccc2N2CC[C@@H]1C2 [Example 204]

Tryp AVG EC1.5 (μM) [1] | Emax (Trp mass spectrometry assay) | Tryp AVG EC1.5 (μM) [2] | Emax (Trp peptide substrate) | SMILES
B (EC1.5 1-25 μM) | ≥ 150% | – | – | O=C(Nc1cnccn1)N1c2nc(-c3cccc(N4CCCC4)c3)ccc2N2CC[C@H]1C2 [Example 206]
A (EC1.5<1 μM) | ≥ 150% | – | – | Cn1ncc2cc(NC(=O)N3c4nc(-c5cccc(N6CCCC6)c5)ccc4N4CC[C@H]3C4)ccc21 [Example 207]
B (EC1.5 1-25 μM) | ≥ 150% | – | – | Cn1ccc(NC(=O)N2c3nc(-c4cccc(N5CCCC5)c4)ccc3N3CC[C@H]2C3)n1 [Example 208]
C (EC1.5>25 μM) | < 150% | – | – | COc1cc(NC(=O)N2c3nc(-c4cccc(C#N)c4)ccc3N3CCC[C@@H]2C3)ncn1 [Example 209]
B (EC1.5 1-25 μM) | ≥ 150% | – | – | N#Cc1cccc(-c2ccc3c(n2)N(C(=O)Nc2cccnc2)[C@@H]2CCCN3C2)c1 [Example 210]
B (EC1.5 1-25 μM) | ≥ 150% | – | – | O=C(Nc1ccncn1)N1c2nc(N3CCCC(C(F)(F)F)C3)ccc2N2CC[C@H]1C2 (stereo partly drawn) [Example 211]
A (EC1.5<1 μM) | ≥ 150% | – | – | O=C(Nc1cccc(-c2cnco2)c1)N1c2nc(N3CCCC(C(F)(F)F)C3)ccc2N2CC[C@H]1C2 (stereo partly drawn) [Example 212]
B (EC1.5 1-25 μM) | ≥ 150% | – | – | Cc1cc(C)nc(NC(=O)N2c3nc(N4CCCC(C(F)(F)F)C4)ccc3N3CC[C@H]2C3)c1 (stereo partly drawn) [Example 213]
A (EC1.5<1 μM) | ≥ 150% | – | – | Cc1csc(NC(=O)N2c3nc(N4CCCC(C(F)(F)F)C4)ccc3N3CC[C@H]2C3)n1 (stereo partly drawn) [Example 214]
B (EC1.5 1-25 μM) | ≥ 150% | – | – | Cc1nc(NC(=O)N2c3nc(N4CCCC(C(F)(F)F)C4)ccc3N3CC[C@H]2C3)sc1C (stereo partly drawn) [Example 215]
A (EC1.5<1 μM) | ≥ 150% | – | – | CN(C)c1cc(NC(=O)N2c3nc(N4CCCC(C(F)(F)F)C4)ccc3N3CC[C@H]2C3)ccn1 (stereo partly drawn) [Example 216]
B (EC1.5 1-25 μM) | ≥ 150% | – | – | CN(C)c1ccnc(NC(=O)N2c3nc(N4CCCC(C(F)(F)F)C4)ccc3N3CC[C@H]2C3)n1 (stereo partly drawn) [Example 217]
– | – | A (EC1.5<1 μM) | ≥ 150% | O=C(Nc1cncc(F)c1)N1c2nc(-c3cccc(Cl)c3)ccc2N2CC[C@@H]1C2 [Example 218]
– | – | B (EC1.5 1-25 μM) | ≥ 150% | COc1cccc(-c2ccc3c(n2)N(C(=O)Nc2ccccn2)[C@@H]2CCN3C2)c1 [Example 219]
– | – | A (EC1.5<1 μM) | ≥ 150% | Cc1cc(-c2ccc3c(n2)N(C(=O)Nc2ccccn2)[C@H]2CCN3C2)ccn1 [Example 220]
– | – | B (EC1.5 1-25 μM) | ≥ 150% | Cc1ccc(-c2ccc3c(n2)N(C(=O)Nc2ccccn2)[C@H]2CCN3C2)cn1 [Example 221]
– | – | A (EC1.5<1 μM) | ≥ 150% | Cc1cc(-c2ccc3c(n2)N(C(=O)Nc2cnccn2)[C@H]2CCN3C2)ccn1 [Example 222]
– | – | A (EC1.5<1 μM) | ≥ 150% | Cc1cc(-c2ccc3c(n2)N(C(=O)Nc2ccc(F)cn2)[C@H]2CCN3C2)ccn1 [Example 223]
– | – | B (EC1.5 1-25 μM) | ≥ 150% | Cc1ccc(-c2ccc3c(n2)N(C(=O)Nc2cncc(F)c2)[C@H]2CCN3C2)cn1 [Example 224]
– | – | B (EC1.5 1-25 μM) | ≥ 150% | N#Cc1cccc(-c2ccc3c(n2)N(C(=O)Nc2ccccn2)[C@@H]2CCCN3C2)c1 [Example 225]
– | – | B (EC1.5 1-25 μM) | ≥ 150% | N#Cc1cccc(-c2ccc3c(n2)N(C(=O)Nc2cccnn2)[C@@H]2CCCN3C2)c1 [Example 226]
– | – | B (EC1.5 1-25 μM) | ≥ 150% | N#Cc1cccc(-c2ccc3c(n2)N(C(=O)Nc2ccc(F)cn2)[C@@H]2CCCN3C2)c1 [Example 227]
– | – | B (EC1.5 1-25 μM) | ≥ 150% | N#Cc1cccc(-c2ccc3c(n2)N(C(=O)Nc2cncc(F)c2)[C@@H]2CCCN3C2)c1 [Example 228]

SMILES | Tryp AVG EC1.5 (μM) [1] | Emax (Trp mass spectrometry assay) | Tryp AVG EC1.5 (μM) [2] | Emax (Trp peptide substrate)
COc1cccc(-c2ccc3c(n2)N(C(=O)Nc2ccc(F)cn2)[C@@H]2CCN3C2)c1 [Example 205] | B (EC1.5 1-25 μM) | ≥ 150% | – | –
